Reference: publication PMC9386018, “A lymphatic-absorbed multi-targeted kinase inhibitor for myelofibrosis therapy” (Nature Communications, 2022)
“And” between values parts separate entries of the source, which are not always exact repeats. Identical values can stand only once.

Experiments:
[1] = target: 321 human protein kinases (Homo sapiens, UniProt O14986); assay: Single-point broad panel kinome screening (SelectScreen Z'-LYTE and Adapta); format: biochemical; settings: PIP5K1B; […] LP-182; [ATP] 10 μM
321 human protein kinases (Homo sapiens, UniProt O14986), sequence (O14986 whole entry, canonical isoform): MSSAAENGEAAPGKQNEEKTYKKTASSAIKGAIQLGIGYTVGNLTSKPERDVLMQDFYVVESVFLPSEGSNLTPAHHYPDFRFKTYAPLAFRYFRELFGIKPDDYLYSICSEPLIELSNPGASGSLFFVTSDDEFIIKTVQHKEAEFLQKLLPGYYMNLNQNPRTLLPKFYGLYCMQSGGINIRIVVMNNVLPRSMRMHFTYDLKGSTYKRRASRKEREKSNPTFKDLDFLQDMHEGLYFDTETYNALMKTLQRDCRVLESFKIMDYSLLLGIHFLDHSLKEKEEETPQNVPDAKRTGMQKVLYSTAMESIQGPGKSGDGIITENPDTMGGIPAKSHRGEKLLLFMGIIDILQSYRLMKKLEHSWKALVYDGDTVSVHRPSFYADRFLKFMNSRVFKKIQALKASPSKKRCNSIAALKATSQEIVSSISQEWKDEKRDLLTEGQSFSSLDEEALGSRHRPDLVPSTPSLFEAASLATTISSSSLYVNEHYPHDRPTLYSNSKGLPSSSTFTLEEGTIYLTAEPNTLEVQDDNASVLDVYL
Procedure: (§1) Quantitation of kinase inhibition was carried out by Life Technologies (Madison, WI) using the SelectScreen profiling platforms Z’-LYTE^TM and Adapta^TM. Single-point broad panel kinome screening was performed at 2.5 µM LP-182 against all kinases within the Z’-LYTE^TM and Adapta^TM assays (321 kinase isoforms, holoenzymes, or mutant variants). The average percent kinase inhibition from replicate data was ranked low to high, converted to a compatible identifier format, then input into Coral Human Kinome Visualization software for presentation analysis. […] Scaling of evolutionary distance for PI kinases is only relative and is based on literature analysis[62],[63]. Average percent kinome inhibition values from replicate data are supplied in Source Data file. […]. Corrected data was normalized to vehicle treated control values, and dose response percent kinase activity was analyzed by non-linear regression for determination of IC50 values.

[2] = target: 321 human protein kinases (Homo sapiens, UniProt O15530); assay: as above; format: biochemical; settings: PDK1; […] LP-182; [ATP] 100 μM
321 human protein kinases (Homo sapiens, UniProt O15530), sequence (O15530 whole entry): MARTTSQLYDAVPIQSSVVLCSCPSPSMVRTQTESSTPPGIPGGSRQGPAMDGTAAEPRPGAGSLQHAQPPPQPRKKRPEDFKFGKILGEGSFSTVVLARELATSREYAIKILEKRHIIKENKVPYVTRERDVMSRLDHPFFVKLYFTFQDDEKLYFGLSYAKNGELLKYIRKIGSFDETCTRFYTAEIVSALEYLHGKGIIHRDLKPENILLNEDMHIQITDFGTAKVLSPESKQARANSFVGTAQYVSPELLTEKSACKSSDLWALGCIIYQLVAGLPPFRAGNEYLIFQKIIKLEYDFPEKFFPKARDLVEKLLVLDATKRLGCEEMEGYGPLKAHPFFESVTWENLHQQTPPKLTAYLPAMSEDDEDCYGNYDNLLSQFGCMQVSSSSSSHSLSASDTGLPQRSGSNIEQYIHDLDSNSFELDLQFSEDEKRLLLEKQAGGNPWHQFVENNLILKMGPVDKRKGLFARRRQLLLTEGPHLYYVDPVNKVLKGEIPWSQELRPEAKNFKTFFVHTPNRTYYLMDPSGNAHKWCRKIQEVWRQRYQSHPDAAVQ
Procedure: as §1

MEK1 = MEK1 (Homo sapiens, UniProt Q02750); assay: Target kinase 10-point inhibition assay, MEK1; format: biochemical; settings: replicates
MEK1, sequence (Q02750 whole entry): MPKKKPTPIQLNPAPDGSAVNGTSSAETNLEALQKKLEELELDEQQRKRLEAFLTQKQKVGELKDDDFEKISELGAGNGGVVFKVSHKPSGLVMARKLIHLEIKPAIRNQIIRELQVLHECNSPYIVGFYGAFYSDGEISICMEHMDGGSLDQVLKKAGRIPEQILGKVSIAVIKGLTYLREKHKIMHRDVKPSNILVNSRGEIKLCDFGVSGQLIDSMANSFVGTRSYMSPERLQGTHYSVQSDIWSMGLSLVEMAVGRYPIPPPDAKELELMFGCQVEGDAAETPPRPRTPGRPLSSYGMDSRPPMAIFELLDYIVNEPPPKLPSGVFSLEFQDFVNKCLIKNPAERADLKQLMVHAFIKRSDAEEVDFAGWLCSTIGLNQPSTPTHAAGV
Description: The average percent kinase inhibition from replicate data was ranked low to high, converted to a compatible identifier format, then input into Coral Human Kinome Visualization software for presentation analysis. […] Scaling of evolutionary distance for PI kinases is only relative and is based on literature analysis[62],[63]. Average percent kinome inhibition values from replicate data are supplied in Source Data file. […] Corrected data was normalized to vehicle treated control values, and dose response percent kinase activity was analyzed by non-linear regression for determination of IC50 values.

[3] = target: Target kinase isoforms (PI3K, mTOR, RAF, MEK) (Homo sapiens, UniProt P04049); assay: Target kinase isoforms 10-point IC50 determination (Supplementary Fig. 7); format: biochemical; settings: CRAF
Target kinase isoforms (PI3K, mTOR, RAF, MEK), sequence (P04049 whole entry, canonical isoform): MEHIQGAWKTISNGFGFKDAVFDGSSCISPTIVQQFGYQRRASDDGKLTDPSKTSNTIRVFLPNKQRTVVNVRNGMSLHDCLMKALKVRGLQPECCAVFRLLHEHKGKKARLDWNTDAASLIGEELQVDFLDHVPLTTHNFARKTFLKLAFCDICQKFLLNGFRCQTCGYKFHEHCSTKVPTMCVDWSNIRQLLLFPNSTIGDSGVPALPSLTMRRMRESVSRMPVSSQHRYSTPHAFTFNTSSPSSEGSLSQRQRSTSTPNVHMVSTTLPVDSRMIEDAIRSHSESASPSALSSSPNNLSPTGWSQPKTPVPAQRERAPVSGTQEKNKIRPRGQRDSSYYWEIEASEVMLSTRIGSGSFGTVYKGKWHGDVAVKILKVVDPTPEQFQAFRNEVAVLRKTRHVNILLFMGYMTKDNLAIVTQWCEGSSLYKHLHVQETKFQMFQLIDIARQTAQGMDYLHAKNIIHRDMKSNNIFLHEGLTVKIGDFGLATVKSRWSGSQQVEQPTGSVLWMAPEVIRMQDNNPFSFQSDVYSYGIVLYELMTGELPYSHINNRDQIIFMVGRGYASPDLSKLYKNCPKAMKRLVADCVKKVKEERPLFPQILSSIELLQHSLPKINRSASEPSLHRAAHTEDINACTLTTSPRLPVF
Procedure, shortened: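 Kinase activity across a 10-point dose series was corrected and normalized to vehicle-treated controls. IC50 values were derived by non-linear regression of percent activity. Kinome-wide percent inhibition was averaged over replicates.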

[4] = system: MPL^W515L mouse model of myelofibrosis; assay: MPL^W515L MF mouse model Study 2: spleen volume by MRI; format: in vivo; settings: for Spleen volume/body weight ratio: Study 2, individual animals, Supplementary Figure 11a
Procedure: Generation of the MPL^W515L mutant MF mouse model was similar to previously described methods. Briefly, female donor BALB/c mice were treated with 5-fluorouracil at 150 mg kg^−1 intraperitoneal for 5 d before harvesting bone marrow. Hematopoietic stem and progenitor cells were enriched with CD117 magnetic beads (Miltenyi Biotec), transduced with retrovirus containing MSCV-hMPL W515L-IRES-GFP, then 50,000 transduced HSPCs along with 300,000 total non-stem cells were injected intravenously into lethally irradiated female BALB/c recipients. Development of MF was evaluated by spleen volumes using MRI beginning ~14 d following bone marrow transplantation (BMT) as outlined below, continuing weekly until end of the study. Mice were separated into equal groups based on spleen size ~14–21 d post-BMT, then treated with vehicle (Maisine CC) or LP-182 at 400 mg kg^−1 daily by oral gavage for 14–28 d or until mice were euthanized using guidelines for end stage illness and humane endpoints. Untreated healthy control animals were used for experimental comparisons. Tissues were harvested and processed for flow cytometry (as described above), LCMS/MS, immuno-blotting, and histological analysis (as described in Supplementary Methods) at the defined study endpoint(s), approximately 1–2 h post-treatment with vehicle or LP-182. Briefly, blood samples were collected, transferred into K2-EDTA tubes (BD Microtainer), inverted gently to mix, then centrifuged at 2000 x g for 15 min. […] Dissection and bone marrow isolation from mouse femur and tibia was performed similar to previously described methods. Briefly, the hind limbs from mice were dissected, muscle and connective tissue removed, and bones were frozen at −80 °C. Femur and tibia were thawed separately, placed knee-end down in 18 gauge needle-pierced 0.5 mL microcentrifuge tubes nested inside 1.5 or 2 mL microcentrifuge tubes containing 1.4 mm ceramic beads (Fisher Scientific), then bone marrow was isolated by centrifugation at 10,000 x g for 1 min and processed for analysis by LCMS/MS (above; femur) or immuno-blotting (tibia). […] Soluble protein extracts were isolated by centrifugation at 15,000 x g for 15 min at 4 °C, quantified using Micro BCA protein assay (Thermo Scientific), then mixed with reducing 6X SDS-PAGE loading dye, heated for 8 min at 95 °C, and stored at −20 °C until immuno-blot analysis. Whole cell lysates were resolved by 10% SDS-PAGE, transferred to PVDF (Immobilon-P; MilliporeSigma), then membranes were blocked with 5% BSA (Equitech-Bio) in TBS containing 0.1% Tween-20 (TBST) for 1 h at room temperature with gentle orbital shaking. […]

O=C(NOCCOCCOCCOCCC(=O)N1CCN(c2cnc3ccc(-c4cnc(Cl)c(NS(=O)(=O)c5ccc(F)cc5)c4)cc3n2)CC1)c1ccc(F)c(F)c1Nc1ccc(I)cc1F [LP-182, N-(2-(2-(2-(3-(4-(7-(6-chloro-5-((4-fluorophenyl)sulfonamido)pyridin-3-yl)quinoxalin-2-yl)piperazin-1-yl)-3-oxopropoxy)ethoxy)ethoxy)ethoxy)-3,4-difluoro-2-((2-fluoro-4-iodophenyl)amino)benzamide]
% Inhibition [1]: 14% | inhibition at […] [1]: 13% | inhibition at […] [2]: 15% | activity at 0.000495 µM (MEK1; MEK1, 0.495 nM): 91% | Kinase Activity (%) (MEK1; MEK1, 0.495 nM, 0.000495 µM): 94% and 100% (2×) and 98% (2×) and 87% | activity at 0.00152 µM (MEK1; MEK1, 1.52 nM): 89% | Kinase Activity (%) (MEK1; MEK1, 1.52 nM, 0.00152 µM): 94% (2×) and 102% (2×) | activity at 0.00457 µM (MEK1; MEK1, 4.57 nM): 92% | Kinase Activity (%) (MEK1; MEK1, 4.57 nM, 0.00457 µM): 77% and 86% and 84% and 81% | Kinase Activity (%) (MEK1; MEK1, 41.2 nM, 0.0412 µM): 47% and 49% and 69% and 72% and 79% and 86% and 76% and 73% | Kinase Activity (%) (MEK1; MEK1, 123 nM, 0.123 µM): 26% and 22% and 46% and 50% and 53% and 57% and 54% and 49% | Kinase Activity (%) (MEK1; MEK1, 1110 nM, 1.11 µM): 0% and 3% (3×) and 8% (2×) and 9% (2×) and 5% and 12% | Kinase Activity (%) (MEK1; MEK1, 3330 nM, 3.33 µM): -1% and 1% (2×) and 2% (2×) and 3% (3×) and 4% and 0% | Kinase Activity (%) (MEK1; MEK1, 10000 nM, 10 µM): 0% and -2% (2×) and 8% and 9% and 4% and 2% and -1% and 3% (2×) | activity at 0.000495 µM (MEK1; MEK1, concentration 0.495 nM): 90% | Kinase Activity (%) (MEK1; MEK1, concentration 0.495 nM, 0.000495 µM): 100% (2×) and 98% (2×) | activity at 0.00152 µM (MEK1; MEK1, concentration 1.52 nM): 99% | Kinase Activity (%) (MEK1; MEK1, concentration 1.52 nM, 0.00152 µM): 94% (2×) and 102% (2×) | activity at 0.00457 µM (MEK1; MEK1, concentration 4.57 nM): 95% | activity at 0.0412 µM (MEK1; MEK1, concentration 41.2 nM): 65% | activity at 0.123 µM (MEK1; MEK1, concentration 123 nM): 43% | activity at […] (MEK1; MEK1, concentration 370 nM): 15% | Kinase Activity (%) (MEK1; MEK1, concentration 1110 nM, 1.11 µM): 9% (2×) and 3% (3×) and 8% (2×) | Kinase Activity (%) (MEK1; MEK1, concentration 3330 nM, 3.33 µM): 2% (2×) and 1% (2×) and 3% (3×) | Kinase Activity (%) (MEK1; MEK1, concentration 10000 nM, 10 µM): 3% (2×) and -2% (2×) | activity at 0.000495 µM ([3]; concentration 0.495 nM, replicates): 97% | Kinase Activity (%) ([3]; concentration 0.495 nM, replicates, 0.000495 µM): 102% and 93% and 92% and 98% | activity at 0.00152 µM ([3]; concentration 1.52 nM, replicates): 100% | Kinase Activity (%) ([3]; concentration 1.52 nM, replicates, 0.00152 µM): 93% and 94% | activity at 0.00457 µM ([3]; concentration 4.57 nM, replicates): 96% | Kinase Activity (%) ([3]; concentration 4.57 nM, replicates, 0.00457 µM): 94% (2×) and 89% and 91% and 93% | Kinase Activity (%) ([3]; concentration 41.2 nM, replicates, 0.0412 µM): 56% and 79% and 66% and 72% and 70% and 71% | activity at 0.123 µM ([3]; concentration 123 nM, replicates): 31% | Kinase Activity (%) ([3]; concentration 123 nM, replicates, 0.123 µM): 30% and 34% (3×) and 32% | activity at […] ([3]; concentration 370 nM, replicates): 7% | Kinase Activity (%) ([3]; concentration 1110 nM, replicates, 1.11 µM): 1% (2×) and 3% and 0% and 2% (2×) | Kinase Activity (%) CRAF ([3]; concentration 3330 nM, 3.33 µM): 0% and -2% and -1% | Kinase Activity (%) CRAF ([3]; concentration 10000 nM, 10 µM): 3% and 0% and 1% and -1% | attenuation of spleen volume increase compared to vehicle ([4]; Study 2, MPL^W515L mice, oral 400 mg kg^−1 daily, after 14 d): ~ 35% | Spleen volume/body weight ratio ([4]; 15 Days Post-BMT): 9.2805 mm3/g and 6.788 mm3/g and 8.526 mm3/g and 6.999 mm3/g and 8.219 mm3/g and 8.1905 mm3/g and 7.226 mm3/g and 10.8805 mm3/g | Spleen volume/body weight ratio ([4]; 22 Days Post-BMT): 22.8 mm3/g and 16.1111 mm3/g and 16.0806 mm3/g and 22.1506 mm3/g and 12.2778 mm3/g and 11.0626 mm3/g and 6.573 mm3/g and 8.03 mm3/g | Spleen volume/body weight ratio ([4]; 29 Days Post-BMT): 30.4359 mm3/g and 16.7368 mm3/g and 15.8947 mm3/g and 27.7838 mm3/g and 8.806 mm3/g and 15.337 mm3/g and 5.115 mm3/g and 6.324 mm3/g
